Results reported in article PMC2737262 (Bioorganic & medicinal chemistry letters, 2009).

Assays:
[1] = tested on: wild-type HIV-1 IIIB in MT-2 human T-cells; assay: MTT colorimetric assay, survival of HIV-infected MT-2 cells; assay type: cell-based

| Compound | CC50 (MT-2 cells) [µM] | EC50 [1] [µM] |
| --- | --- | --- |
| CC[C@H](C)[C@@H](CC(=O)N[C@@H](CCC(=O)O)CC(=O)O)NC(=O)C[C@@H](NC(=O)C[C@H](CCCN)NC(=O)C[C@H](Cc1c[nH]c2ccccc12)NC(=O)C[C@@H](NC(=O)C[C@H](CCC(=O)O)NC(=O)C[C@H](Cc1c[nH]c2ccccc12)NC(=O)C[C@@H](NC(=O)C[C@@H](N)CCCN)C(C)C)C(C)C)C(C)C [βWWI-1] | 100 ± 19.6 |  |
| CC[C@H](C)[C@@H](CC(=O)N[C@@H](CCC(=O)O)CC(=O)O)NC(=O)C[C@@H](NC(=O)C[C@H](CCCN)NC(=O)C[C@H](Cc1cccc(C(F)(F)F)c1)NC(=O)C[C@@H](NC(=O)C[C@H](CCC(=O)O)NC(=O)C[C@H](Cc1c[nH]c2ccccc12)NC(=O)C[C@@H](NC(=O)C[C@@H](N)CCCN)C(C)C)C(C)C)C(C)C [βWXI-a] | 150 ± 3.3 |  |
| CC[C@H](C)[C@@H](CC(=O)N[C@@H](CCC(=O)O)CC(=O)O)NC(=O)C[C@@H](NC(=O)C[C@H](CCCN)NC(=O)C[C@H](Cc1cccnc1)NC(=O)C[C@@H](NC(=O)C[C@H](CCC(=O)O)NC(=O)C[C@H](Cc1c[nH]c2ccccc12)NC(=O)C[C@@H](NC(=O)C[C@@H](N)CCCN)C(C)C)C(C)C)C(C)C [βWXI-b] | > 250 |  |
| enfuvirtide |  | 0.0375 |
